Measured values reported in patent publication US5561131A, “Defaunation method” (Mallinckrodt Veterinary, Inc., priority 1991, dated 1996).

How the values were obtained:
[1] = system: rumen ciliate protozoa; test: In vitro activity of defaunation compounds against rumen ciliate protozoa; format: cell-based; settings: 39° C., anaerobic, 3 hours, tested at 50, 150, 250 and 500 ppm
Procedure: Compounds of Table 1 were tested for their toxicity against rumen ciliate protozoa by firstly isolating protozoa from rumen liquor collected from faunated animals. The rumen liquor was then centrifuged at 500 g for five minutes and the supernatant discarded. The protozoal-rich sediment was then reconstituted in McDougal's artificial saliva. Residual bacteria were suppressed by using a combination of two antibiotics at low concentration. Nitrogen and energy substrate was optimized for the protozoal preparation. At all times the protozoal preparation was maintained at 39° C. and kept anaerobic.
Sixty milligrams of each the compounds of Table 1 were dissolved in 1.2 ml of dimethyl sulphoxide and dispersed in triplicate to achieve a final concentration of 50, 150, 250 and 500 ppm. Ten milliliters of protozoal preparation was then added to each tube. After every second compound, control tubes were included which contained everything except for compound. The tubes, to which a 5 ml glass syringe was attached, were then incubated for 3 hours in a water bath at 39° C. The production of gas causes the syringe plunger to be displaced.
At the end of the incubation period, the volume of gas produced was recorded and the viability of the protozoa assessed visually using a microscope. The toxicity of the compounds to protozoa was assessed from both the reduction in gas produced relative to the control and by direct observation of the protozoa for movement of cilia.

[2] = system: rumen bacteria; test: In vitro bacterial gas inhibition; format: cell-based; settings: at the concentration known to kill protozoa
Procedure: Compounds of Table 1 were also tested for toxicity bacteria. This involved removing protozoa from rumen liquor by centrifugation at 2,000 g for 5 minutes and collecting the bacterial rich supernatant. Nitrogen and energy substrate was added to the bacterial preparation which was then dispensed in triplicate 10 ml volumes over the same range of compound concentrations (50, 150, 250 and 500 ppm.) referred to in Example 2. Control tubes were placed after every second compound to enable the inhibition of gas resulting from the compound to be assessed. […] It can be seen that these compounds are selective in their mode of action, in that they are more toxic to protozoa than bacteria.

[3] = system: rumen ciliate protozoa; test: Protozoal reduction in sheep; format: in vivo; parameters: concentration or dose not given beside the values; settings: one week after dosing, relative to predosing numbers
Procedure: Defaunation compositions were prepared according to the method of Example 1.
Prior to dosing of the compound, a sample of rumen liquor (200 ml) was withdrawn to establish basal numbers of protozoa.
The sample was collected using a stomach tube, inserted into the rumen via a rumen cannula (fistulated animals) or per esophagus (intact animals). After straining the sample was well mixed using a magnetic stirrer and a 0.5 ml sample was withdrawn and added to 49.5 ml of a crystal violet stain. Protozoa were counted using a microscope and a Hawksley counting chamber.
One week after administering the compound, another rumen liquor sample was collected (as described above) and examined for the presence of protozoa. Where rumen ciliate protozoa were undetectable, a reduction or inhibition value of 100% was recorded. In general, most compounds expressed a strong inhibitory effect on protozoal populations.

[4] = system: rumen bacteria; test: Bacterial viability in sheep after administering defaunation compounds; format: in vivo; settings: gas production one week after dosing vs pre-dosing
Procedure: In order to establish what effect the compounds had on the viability of rumen bacteria, a sample of rumen liquor was collected prior to dosing of the compound. The sample was withdrawn under vacuum using a pre-warmed tube inserted into the rumen through a rumen cannula. The sample was collected in a pre-warmed (39° C.) flask, gassed with carbon dioxide and covered. Two-pre-warmed 30 ml centrifuge tubes were then filled with well mixed rumen liquor and centrifuged at 2000 rpm for 5 minutes. Half the volume of each tube was then poured into another pre-warmed tube without disturbing the sediment. Three lots of 10 ml of this rumen liquor were then pipetted into 15 ml tubes which contained 10 μL of urea solution (40% w/v and 300 μL of glucose solution (50% w/v). The urea and glucose acted as substrate for the bacteria. The tubes were then gassed with carbon dioxide, stoppered and placed in a water bath at 39° C. After 10 minutes a 5 ml glass syringe was secured into the stoppers (through which a hypodermic needle had been inserted) and the gas collected for five hours and recorded.
This bacterial viability measure was then repeated one week after dosing with each of the compounds referred to in Table 1. Defaunation compositions were prepared according to the method of Example 1. The amount of gas produced was then compared with the pre-dosing level. The criterion for classifying post-dosing bacterial viability is shown below:
Poor--reduction in post-dosing gas production relative to pre-dosing levels.
OK--post-dosing gas production the same as pre-dosing levels.
Good--increase in post-dosing gas production relative to pre-dosing levels.

[5] = Effect of defaunation compounds on feed intake of sheep; format: in vivo; settings: after dosing vs pre-dosing intake
Procedure: Sheep were allowed a minimum of three weeks to adapt to their ration of 900 g of oaten chaff and 100 g of Lucerne chaff. The pre-dosing level of intake for each animal was established from the mean of five days intake immediately prior to dosing. Any effects of administering the compound on feed intake was then determined by measuring the level of feed intake after dosing.
The criteria of classifying the effect on food intake are shown below.
Poor--greater than 50% reduction in feed intake during the first week after dosing.
Fair--greater than 50% reduction in feed intake on the day following dosing but less then 50% reduction one week after dosing.
OK--transient drop in feed intake which is less than 50% on the day after dosing.
Good--No reduction in feed intake following dosing.

[6] = Wool growth in defaunated sheep; format: in vivo; settings: sheep, 167 mg/kg
Procedure: (§1) Seven sheep each were defaunated using a dose rate of 167 mg/kg. Compounds were administered by first mixing with 20 ml of ethanol and then with 200 ml of centrifuged rumen liquor. This solution was then administered via a flexible stomach tube directly into the rumen. The sheep were fed with a ration of 90% oaten chaff and 10% Lucerne chaff at a rate of 1000 g per day. The sheep were maintained in a defaunated state by their isolation from faunated sheep to prevent the possibility of refaunation. The sheep were allowed to adjust for 3 weeks after administering the compound before any wool growth measurements were taken.
(§2) At the start of the wool growth measurement period, a 10 cm square area of wool was removed from both sides of the sheep. After four weeks the same area was reclipped and the wool retained for scouring at the end of the trial.
(§3) The sheep then had protozoa introduced back into their rumen and were allowed to adjust for three weeks. Similarly, during the second four week period, the wool was clipped from the same patch area. The wool harvested during the two four week trial periods was then scoured of wool wax and extraneous material and weighed.

[7] = system: protozoa; test: Wool growth trial: protozoal number; format: in vivo; settings: sheep, defaunated period, 167 mg/kg
Procedure: as §1, §2, §3

[8] = system: protozoa; test: Sheep test: protozoal numbers; format: in vivo
Procedure: (§4) In this trial the effect of defaunation by compounds 27, 30 and 37 (see Table 1) after 1 and 3 weeks were examined using penned sheep.
(§5) The compounds were each administered to two sheep as a single dose at 167 mg/kg body weight. Compositions containing each compound were prepared according to the method of Example 1. Sheep were penned and fed 1000 g/day of a chaffed oaten hay and Lucerne mixture (90/10). Protozoal and bacterial viabilities were monitored along with the feed intake of the sheep according to the methods taught in Examples 2, 3 and 7.

[9] = system: rumen bacteria; test: Sheep test: bacterial gas production; format: in vivo
Procedure: as §4, §5

[10] = Sheep test: feed intake; format: in vivo
Procedure: as §4, §5

Cc1ccc(Nc2nc(Cl)nc(Cl)n2)c(C)c1 [Compound 30, 2,4 dichloro-6-(2,4-dimethylanilino)-s-triazine]
Conc Required to Kill all Protozoa [1]: 150 ppm
Bact. Gas Inhibition at the conc. required to kill protozoa [2]: 33
Protozoal Reduction [3]: 100%
Bacterial Viability [4]: Good
Feed Intake [5]: Okay (transient drop, less than 50% at day 2)
Response To Defaun ([6]; clean wool growth defaunated vs refaunated): 14.6
Clean Wool Growth ([6]; defaunated period, 4 weeks, per midside patch): 2.830 g
Prot. Number [7]: 0 per mL × 10^3
Protozoal Nos. ([8]; 1 week after 167 mg/kg): 0 per mL × 10^3
Protozoal Nos. ([8]; 3 weeks after 167 mg/kg): 0 per mL × 10^3
Protozoal Nos. ([8]; pre-dose (baseline)): 346 per mL × 10^3
Bacterial gas production ([9]; 1 week after 167 mg/kg): 1.9 M1 per 5 hr
Bacterial gas production ([9]; 3 weeks after 167 mg/kg): 4.6 M1 per 5 hr
Bacterial gas production ([9]; pre-dose (baseline)): 4.4 M1 per 5 hr
Feed Intake ([10]; 1 week after 167 mg/kg): 625 g/day
Feed Intake ([10]; 3 weeks after 167 mg/kg): 740 g/day
Feed Intake ([10]; pre-dose (baseline)): 887 g/day
